target: TNFα (Homo sapiens, UniProt P01375); assay: TNFα FP Competitive Binding Assay; settings: 20 nM TNFα trimer, 1 nM OregonGreen488 probe, read-out: TNF IC50
Method: TNFα FP Competitive Binding Assay
Prepare 1× Assay Buffer (Water with 47 mil HEPES, 47 mM NaCl, 0.9 mM EDTA, 0.0071% Triton X-100) by adding 25 mL of 1 M HEPES, 5 mL of 5 M NaCl, 1 mL of 0.5 M EDTA, and 375 μL of a 10% Triton X-100 stock to a fresh 500 mL bottle of water.
Prepare fresh Assay Mixture containing 20 nM TNFα trimer (60 nM protein) and 1 nM 2′,7′-difluoro-3′,6′-dihydroxy-N-(2-(2-(2-((4-(isoquinolin-8-yl)-3-(4-(isoquinolin-8-yl)phenethoxy)benzyl)oxy)ethoxy)ethoxy)ethyl)-3-oxo-3H- spiro[isobenzofuran-1,9′-xanthene]-5-carboxamide probe in 1× Assay Buffer.
Top concentration of compounds, 10 mM in DMSO, dispensed in rows A-O in columns 1 and 13. Compounds are serially diluted 1:3 with DMSO in columns 2-12 or 14-24 using a 16-channel Matrix pipettor. Plates stored at −20° C.
Top concentration, 5 mM in DMSO, of compounds placed in rows A-O in columns 1 and 13.
Compounds are serially diluted 1:3 with DMSO in columns 2-12 or 14-24. Compound solutions are dispensed into replicate assay plates at 410 nL per well. Plates stored at 4° C.
TNFα FP Competitive Binding Assay Protocol • 1. Compound plates warmed to rt. • 2. Fresh Assay Mixture is prepared. • 3. Assay Mixture (20 μL) is dispensed each well of 384 assay plates using a Thermo Multidrop Combi or 16-channel Matrix pipettor. If Manual 12-point 1:3 Dilution Plates are to be tested, Assay Mix is dispensed into empty plates. Discovery Preps 12-point 1:3 Dilution Plates already contain 410 nL compound solution in DMSO. • 4. For Manual 12-point 1:3 Dilution Plates, 0.7 μL is manually transferred using a 16-channel Matrix pipettor to replicate assay plates containing 20 μL Assay Mixture for a final top compound concentration of […] (3.4% DMSO). • 5. For Discovery Preps 12-point 1:3 Dilution Plates, 20 μL Assay Mixture added the 410 nL compound solution already in the plates yields a final top compound concentration of 100 μM (2.0% DMSO). • 6. Background subtraction controls are wells P1-P8 containing only Assay Buffer. The low % inhibition controls are wells P9-P16 containing only Assay Mix. The high % inhibition are wells P17-P24 containing only 1 nM 2′,7′-difluoro-3′,6′-dihydroxy-N-(2-(2-(2-((4-(isoquinolin-8-yl)-3-(4-(isoquinolin-8-yl)phenethoxy)benzyl)oxy)ethoxy)ethoxy)ethyl)-3-oxo-3H-spiro[isobenzofuran-1,9′-xanthene]-5-carboxamide probe in 1× Assay Buffer. • 7. Plates are incubated at rt for 18-24 h in […] (CO2 is off). • 8. Prior to reading the assay, the plates are placed in a dark cabinet to equilibrate at rt for one hour. • 9. Background-subtracted fluorescence polarization (mP) is measured using a PerkinElmer Envision plate reader. • 10. Raw data is entered into Assay Explorer and dose-response curves are generated using a variable slope curve.

Sequence of TNFα (P01375 77-233 limits assumed): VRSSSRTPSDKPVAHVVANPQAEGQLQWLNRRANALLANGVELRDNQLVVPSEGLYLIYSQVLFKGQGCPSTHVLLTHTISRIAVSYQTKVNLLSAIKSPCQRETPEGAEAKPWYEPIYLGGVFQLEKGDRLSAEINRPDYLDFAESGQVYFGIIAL

| SMILES | IC50 [µM] |
| --- | --- |
| O=C1c2ccc(-c3cnc(N4CCOCC4)nc3)cc2[C@H]2[C@@H](c3ccccc3OC(F)F)CCN12 (single isomer, unassigned) [Example 9.2] | < 1 |
| Cc1ccc(OC(F)F)c([C@H]2CCn3c(=O)c4cc(F)c(-c5cnc(C(C)(C)O)nc5)cc4n32)c1 (single isomer, unassigned) [Example 13.1] | < 1 |
| O=C1c2ccc(-c3cnc(N4CCOCC4)nc3)cc2[C@@H]2[C@H](c3ccccc3OC(F)F)CCN12 (single isomer, unassigned) [Example 9.1] | > 10 |
| CC(C)n1nccc1C1CCn2c(=O)c3ccc(-c4cnc(N5CCOCC5)nc4)cc3n21 (stereo not drawn) [Example 8.5, 3-(1-isopropyl-1H-pyrazol-5-yl)-6-(2-morpholinopyrimidin-5-yl)-2,3-dihydropyrazolo[1,2-a]indazol-9(1H)-one] | > 10 |
| O=C1NC[C@@H]2CN(c3ncc(-c4ccc5c(=O)n6n(c5c4)[C@H](c4ccccc4OC(F)F)CC6)cn3)CCN12 (single isomer, unassigned) [Example 5.2] | < 1 |
| O=C1C[C@@H](CNc2ncc(-c3ccc4c(=O)n5n(c4c3)[C@@H](c3ccccc3OC(F)F)CC5)cn2)CN1 (single isomer, unassigned) [Example 4.3] | 1 to 10 |
| CC(C)(O)c1ncc(-c2cc3c(cc2F)c(=O)n2n3[C@@H](c3ccccc3OC(F)F)CC2)cn1 (single isomer, unassigned) [Example 12.1] | < 1 |
| Cc1ccc(OC(F)F)c([C@@H]2CCn3c(=O)c4cc(F)c(-c5cnc(C(C)(C)O)nc5)cc4n32)c1 (single isomer, unassigned) [Example 13.2] | < 1 |
| O=c1c2ccc(-c3cnc(N4CCOCC4)nc3)cc2n2n1CC[C@@H]2c1ccccc1OC(F)F (single isomer, unassigned) [Example 1.1] | < 1 |
| COC[C@H]1CCCN1c1ncc(-c2ccc3c(=O)n4n(c3c2)[C@H](c2ccccc2OC(F)F)CC4)cn1 (single isomer, unassigned) [Example 1.4] | 1 to 10 |
| O=C1NC[C@@H]2CN(c3ncc(-c4ccc5c(=O)n6n(c5c4)[C@@H](c4ccccc4OC(F)F)CC6)cn3)CCN12 (single isomer, unassigned) [Example 6.2] | < 1 |
| Cc1ccc(OC(F)F)c([C@@H]2CCn3c(=O)c4ccc(-c5cnc(C(C)(C)O)nc5)cc4n32)c1 [Example 14.2] | < 1 |
| O=c1c2ccc(-c3cnc(N4CCO[C@H](CO)C4)nc3)cc2n2n1CC[C@@H]2c1ccccc1OC(F)F (single isomer, unassigned) [Example 3.1] | < 1 |
| O=c1c2ccc(-c3cnc(N4CCOCC4)nc3)cc2n2n1CC[C@H]2c1ccccc1OC(F)F (single isomer, unassigned) [Example 1.2] | < 1 |
| O=C(O)C1CCN(c2ncc(-c3ccc4c(=O)n5n(c4c3)C(c3ccccc3OC(F)F)CC5)cn2)CC1 (stereo not drawn) [Example 1.3, 1-(5-(3-(2-(difluoromethoxy)phenyl)-9-oxo-1,2,3,9-tetrahydropyrazolo[1,2-a]indazol-6-yl)pyrimidin-2-yl)piperidine-4-carboxylic acid] | 1 to 10 |

From patent US10273238B2, “Indazolones as modulators of TNF signaling” (AbbVie Inc., priority 2015, dated 2019)
